Data from US7026454B1, “Neuroendocrine marker of prostate cancer and method for producing same” (University of Kansas Medical Center, priority 1998, dated 2006).
Each block holds one molecule with its values, some of them ahead of it. Where no end group is shown, it is not given here.

Legend:
[1] = system: PC-3M cells; assay: 3H-thymidine incorporation (DNA synthesis) in PC-3M cells; format: cell-based; settings: 24 hours, FIG. 1
Experimental: FIG. 1 illustrates the effect of exogenously added prostatic NEM on DNA synthesis of an aggressive prostate cancer (PC-3M) cell line. To obtain the results shown in FIG. 1, PC-3M cells were seeded at a density of 10,000 cells per well and incubated overnight in the complete medium. The cells were then washed with and incubated in serum-free medium containing the agents and 0.5 μCi of 3H-thymidine for 24 hours. At the end of incubation, the cells were washed three times with PBS-1 μM thymidine and the incorporated radioactivity was determined in TCA-precipitable fraction.
If NEM-induced DNA synthesis may influence proliferative activity of a prostate tumor and other cancer cells, then its immunoneutralization should reduce the growth. This hypothesis was tested by studying the rate of 3H-thymidine incorporation in PC-3M prostate cancer cells. The cells were treated either with non-immune antiserum or anti-NEM antiserum at a final dilution of 1:50.

[2] = system: OVCA-5; assay: Growth of non-prostate cancer cells (bone-derived cell lines); format: cell-based
[3] = system: PC-3M cells; assay: Matrigel in vitro invasion of PC-3M cells; format: cell-based
Experimental: FIG. 2 illustrates the effect of NEM on in vitro invasion of PC-3M cells. The experiment used 3 well Matrigel invasion chambers (Becton Dickinson, Bedford, Mass.). Approximately 200,000 PC-3M cells were seeded in the upper chamber in RPMI 1640 medium containing 0.1% BSA (Sigma, St. Louis), 4 mM L-glutamine, 100 IU/ml penicillin G and 100 ug/ml streptomycin. The lower chamber medium contained chemoattractant medium consisting of 80% complete medium (RPMI 1640, 12% horse serum, 4% […] fetal calf serum, 4 mM L-glutamine, 100 IU/ml penicillin G and […]). Different concentrations of NEM or conditioned media from NEM-PC3-M cells that express NEM (dilutions ranging from 1 to 5) were added to the upper chamber. The experiments were carried out for 72 hours. At the end of the incubation period the Matrigel was scraped off using cotton swabs and the top insert was fixed and stained using Diff Quick staining (Dade Diagnostics, Aguada, PR). The relative invasive potential was determined by normalizing for cell growth. This was done by plating 100,000 cells in six well dishes in chemoattractant medium and determining the relative growth of cells after 72 hours. The number of cells per 100×field were expressed as mean +/−SEM.
FIG. 4 illustrates the effect of the anti-NEM antiserum on invasion of PC-3M cells. […]

[4] = system: NEM receptors on prostate cancer cells; assay: Binding of NEM to its receptors on prostate cancer cells
[5] = system: prostate cancer cell lines; settings: background statement; cited from earlier work
[6] = biological target: NEM receptor on prostate cancer cells; assay: cell-based or functional assay

Molecule: NEM: novel neuroendocrine growth factor or marker isolated from prostate cancer cells; amino acid SEQ ID NO: 6 expressed in PC-3M cells (RTCVLGYLHIVPEFIESQLLGLLSPVSL; listed as Homo sapiens)
concentration at which the increase in DNA synthesis was significant ([1]; PC-3M cells): ≥ 10 nM
3H-thymidine incorporation (DNA synthesis) ([1]; exogenously added NEM, serum-free medium): stimulated 3H-thymidine incorporation in a dose-dependent fashion
growth of non-prostate cancer cells [2]: stimulates the growth
invasiveness of PC-3M cells ([3]; all concentrations of NEM significant vs 0, P<0.05, FIG. 2): in a dose-dependent fashion significantly increases the invasiveness
increase in invasiveness ([3]; from 0M to 10^-6M NEM, 72 hours, FIG. 2): 70%
receptor binding affinity [4]: high affinity (low nM)

Molecule: Pindobind
growth of prostate cancer cell lines [5]: inhibit the growth

3H-thymidine incorporation (DNA synthesis) in PC-3M cells [6]: > 10 nM
in vitro Matrigel invasion of PC-3M cells [6]: 70%
Molecule: RTCVLGYLHIVPEFIESQLLGLLSPVSL (ligand, also: 125I-labelled form used in RIA) [neuroendocrine growth factor or marker (NEM)]
